From patent USRE40387E1, “Pharmaceutical compositions, dosage forms and methods for oral administration of epothilones” (Bristol-Myers Squibb Company, priority 2001, dated 2008)

Test: Pharmacokinetics of oral and IV Compound A in cancer patients
Format: in vivo
Description: Patients with advanced malignancies were administered Compound A weekly as a 30-minute infusion (a course=3 intravenous weekly administrations). […] Serial plasma sampling was obtained on day 6 and day 1 of course 1 to assess pharmacokinetics by an LC/MS/MS. The LC/MS/MS assay was the same as used in Example 1.
Following oral administration on day 6, 7 mL blood samples was collected into Becton Dickinson Vacutainer tubes with K3EDTA as anticoagulent (lavender-colored top) according to the following schedule (expressed as hours:minutes from the start of the oral administration): predose, 00:15, 00:30, 00:45, 01:00, 01:30, 02:00, 03:00, 04:00, 06:00, 08:00, 24:00, 48:00, and 72:00. Following IV administration on day 1, 7 mL blood samples were collected into Becton Dickinson Vacutainer tubes with K3EDTA as anticoagulent (lavender-colored top) according to the following schedule (expressed as hours:minutes from the start of the IV infusion): predose, 00:15, 00:30 (end-of infusion), 00:45, 01:00, 01:30, 02:00, 03:00, 04:00, 06:00, 08:00, 24:00, 48:00, and 72:00.
Immediately after blood collection, the Vacutainer tubes were inverted several times to ensure mixing with the anticoagulant and then immediately placed on crushed ice. Within 30 minutes of collection, samples were centrifuged for 5 minutes at approximately 2000×g and 0 to 5 EC 5° C. The plasma was then transferred to separate pre-labeled screw-capped polypropylene tubes and stored at −70 EC −70° C. until bioanalysis. Plasma concentrations of Compound A were analyzed using the LC/MS/MS assay described in Example 1.
The plasma concentration versus time data were analyzed using non-compartmental methods. The pharmacokinetic parameters determined for Compound A included the maximum observed plasma concentration (Cmax), time to reach Cmax (Tmax), area under the plasma concentration time curve from time zero to the time of last sampling time T(AUC (0−T)).

[1] = 20 mg/m^2, oral solution with buffer
[2] = 25 mg/m^2, oral solution with buffer
[3] = 305 mg/m^2 as printed, oral solution with buffer

Question: Which results are given for `C/C(=C\c1csc(C)n1)[C@@H]1C[C@@H]2O[C@]2(C)CCC[C@H](C)[C@H](O)[C@@H](C)C(=O)C(C)(C)[C@@H](O)CC(=O)N1` (relative stereo) [Compound (A), [1S-[1R*,3R*(E),7R*,10S*,11R*,12R*,16S*]]-7,11-dihydroxy 8,8,10,12,16-pentamethyl-3-[1-methyl-2-(2-methyl-4-thiazolyl)ethenyl-4-aza-17-oxobicyclo[14.1.0]heptadecane-5,9-dione]?
Answer: AUC(0-T), mean (20 mg/m^2, IV): 796 ng·h/mL; TMAX, median (20 mg/m^2, IV): 15 min; CMAX, mean (20 mg/m^2, IV, N 3): 251 ng/mL; % F, mean [1]: 43.5%; AUC(0-T), mean [1]: 404 ng·h/mL; TMAX, median [1]: 60 min; CMAX, mean (20 mg/m^2, oral solution with buffer, N 3): 142 ng/mL; AUC(0-T), mean (25 mg/m^2, IV): 848 ng·h/mL; TMAX, median (25 mg/m^2, IV): 30 min; CMAX, mean (25 mg/m^2, IV, N 11): 447 ng/mL; % F, mean [2]: 55.6%; AUC(0-T), mean [2]: 533 ng·h/mL; TMAX, median [2]: 30 min; CMAX, mean (25 mg/m^2, oral solution with buffer, N 11): 180 ng/mL; AUC(0-T), mean (305 mg/m^2 as printed, IV): 1155 ng·h/mL; TMAX, median (305 mg/m^2 as printed, IV): 30 min; CMAX, mean (305 mg/m^2 as printed, IV, N 4): 711 ng/mL; % F, mean [3]: 62.2%; AUC(0-T), mean [3]: 708 ng·h/mL; TMAX, median [3]: 30 min; CMAX, mean (305 mg/m^2 as printed, oral solution with buffer, N 4): 274 ng/mL
